These results are taken from patent US9789082B2, “Somatostatin receptor subtype 4 (SSTR4) agonists” (Centrexion Therapeutics Corporation, priority 2013, dated 2017).

In data set [1] the target is human Somatostatin 4 receptor (SSTR4) (Homo sapiens (Human), UniProt P31391). The data set can be described thus: cAMP assay with human somatostatin 4 receptor (hSSTR4 expressing H4 cells). The settings on record: cAMP assay, read-out: SSTR4 agonism EC50. Format: cell-based. How it is done:
Camp Assay Method Description for cAMP Assay with Human Somatostatin 4 Receptor
The activation of the SSTR4 receptor (Gi coupled) causes an inhibition of intracellular cAMP after stimulation with Forskolin, which can be quantifiable by use of a suitable assay Kit and an adequate plate reader. This technique is used to characterize pharmacological effects of the SSTR4 receptor agonists by use of hSSTR4 expressing H4 cells.
Compounds are dissolved and diluted in DMSO. The final test solution contains 1% DMSO. […] Cells are centrifuged and suspended in assay buffer (incl. 1:100 diluted Alexa antibody).
For the assay 5 μl of a cell suspension (approximately 5000 cells/well)—incl. Alexa antibody (diluted 1:100) are added into a 384 well MTP microtitre plate excepting one row or column (depending on the plate layout), which is reserved for the standard curve. Then 2 μl of compound sample is added as concentration response curve (e.g. 1e-5 M to 6e-10 M), usually in triplicates. Each assay contains incubations with vehicle controls instead of compound as controls for non-inhibited cAMP generation (100% CTL; ‘high values’) and incubations with 1 μM Somatosatin as controls for full inhibition and background (0% CTL; […]). […] Then the plates are shaken briefly and incubated for 60 min at room temperature. After 60 min 10 μl of the detection mix is added into all wells followed by an additional incubation period of 1 h. The plates are read in a suitable plate reader.
From this ratio, cAMP concentrations are calculated from standard curve and the EC50 is estimated by least square curve fit program.
The EC50 values were obtained with the aid of the above described cAMP ASSAY.

Data set [2] is described as follows: Metabolic stability in pooled human liver microsomes (half-life). Format: in vitro ADME. The settings on record: 1 μM test compound; for half-life at 1 μM: pooled human liver microsomes, pH 7.6, 37° C., read-out: Half-life t1/2. How it is done:
The metabolic stability of the compounds according to the invention may be investigated as follows:
The metabolic degradation of the test compound is assayed at 37° C. with pooled human liver microsomes. The final incubation volume of 100 μl per time point contains TRIS buffer pH 7.6 at room temperature (0.1 M), magnesium chloride (5 mM), microsomal protein (1 mg/mL) and the test compound at a final concentration of 1 μM. Following a short preincubation period at 37° C., the reactions are initiated by addition of beta-nicotinamide adenine dinucleotide phosphate, reduced form (NADPH, 1 mM), and terminated by transferring an aliquot into solvent after different time points. After centrifugation (10000 g, 5 min), an aliquot of the supernatant is assayed by LC-MS/MS for the amount of parent compound. The half-life is determined by the slope of the semi-logarithmic plot of the concentration-time profile.

Sequence of human Somatostatin 4 receptor (SSTR4) (P31391 whole entry): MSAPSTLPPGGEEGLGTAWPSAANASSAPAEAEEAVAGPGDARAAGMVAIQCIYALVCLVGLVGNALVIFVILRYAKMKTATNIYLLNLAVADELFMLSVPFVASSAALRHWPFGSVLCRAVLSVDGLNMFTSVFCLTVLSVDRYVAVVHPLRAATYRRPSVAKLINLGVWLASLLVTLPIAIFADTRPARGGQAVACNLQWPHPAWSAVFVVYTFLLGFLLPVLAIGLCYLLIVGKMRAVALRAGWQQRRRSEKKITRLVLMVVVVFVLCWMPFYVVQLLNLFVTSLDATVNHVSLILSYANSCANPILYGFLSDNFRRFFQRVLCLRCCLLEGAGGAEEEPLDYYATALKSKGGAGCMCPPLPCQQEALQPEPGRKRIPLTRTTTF

On to `CC(NC(=O)[C@H]1[C@@H]2CNC[C@@H]21)c1nn(C)c2ccccc12` (single isomer, unassigned) [Example 113], for which, in data set [1], the EC50 amounted to 19.2 nM. For the same compound, the half-life at 1 μM in data set [2] was > 2.17 h.
On to `CC(NC(=O)[C@H]1[C@@H]2CNC[C@@H]21)c1nn(C)c2c(Cl)cccc12` (single isomer, unassigned) [Example 116], for which, in data set [1], the EC50 was determined as 2.1 nM. For the same compound, the half-life at 1 μM in data set [2] was > 2.17 h.
The corresponding values for `Cc1cccc2c(C(C)NC(=O)[C@H]3[C@@H]4CNC[C@@H]43)nn(C)c12` (single isomer, unassigned) [Example 119] are 3.2 nM and > 2.17 h.
`O=C(NC1(Cc2ccccc2C(F)(F)F)CC1)[C@H]1[C@@H]2CNC[C@@H]21` [Example 2]: the EC50 in data set [1] came to 56.5 nM. The half-life at 1 μM in data set [2] is > 2.17 h.
The corresponding values for `CC(C)(NC(=O)[C@H]1[C@@H]2CNC[C@@H]21)c1ccc(Cl)c(Cl)c1.Cl` [Example 8] are 2.8 nM and > 2.17 h.
Regarding `C[C@H](NC(=O)[C@H]1[C@@H]2CNC[C@@H]21)c1cccc2ccccc12` [Example 10], the EC50 in data set [1] was 10.7 nM. For the same compound, the half-life at 1 μM in data set [2] was > 2.17 h.
On to `CC(C)(COc1ccccc1C(F)(F)F)NC(=O)[C@H]1[C@@H]2CNC[C@@H]21.Cl` [Example 12], for which the EC50 in data set [1] is 0.6 nM. Also, the half-life at 1 μM in data set [2] is > 2.17 h.
Regarding `Cc1cc(F)ccc1OCC(C)(C)NC(=O)[C@H]1[C@@H]2CNC[C@@H]21.Cl` [Example 13], the half-maximal effective concentration (EC50) in data set [1] came out at 2.4 nM. For the same compound, the half-life at 1 μM in data set [2] was > 2.17 h.
In the case of `Cc1cc(Cl)ccc1OCC(C)(C)NC(=O)[C@H]1[C@@H]2CNC[C@@H]21.Cl` [Example 15], the EC50 in data set [1] stood at 7.8 nM. Also, the half-life at 1 μM in data set [2] was > 2.17 h.
As for `Cc1cc(C#N)ccc1OCC(C)(C)NC(=O)[C@H]1[C@@H]2CNC[C@@H]21.Cl` [Example 17], the EC50 in data set [1] was 1 nM. Further, the half-life at 1 μM in data set [2] is > 2.17 h.
On to `CC(C)(COc1cccnc1C(F)(F)F)NC(=O)[C@H]1[C@@H]2CNC[C@@H]21.Cl` [Example 18], for which the EC50 in data set [1] came to 20.4 nM. The half-life at 1 μM in data set [2] was > 2.17 h.
`CC(C)(NC(=O)[C@H]1[C@@H]2CNC[C@@H]21)c1cnc2ccccn12.Cl` [Example 20]: the EC50 in data set [1] was 8.5 nM. In addition, the half-life at 1 μM in data set [2] was > 2.17 h.
In the case of `CC(C)(NC(=O)[C@H]1[C@@H]2CNC[C@@H]21)c1ncccc1C(F)(F)F.Cl` [Example 23], the EC50 in data set [1] amounted to 17.5 nM. Moreover, in data set [2], the half-life at 1 μM was > 2.17 h.
Turning to `CC(C)(NC(=O)[C@H]1[C@@H]2CNC[C@@H]21)C1CCc2ccccc2O1.Cl` (stereo partly shown) [Example 28], the EC50 in data set [1] was found to be 11.3 nM. Further, the half-life at 1 μM in data set [2] was > 2.17 h.
The corresponding values for `CC(C)(NC(=O)[C@H]1[C@@H]2CNC[C@@H]21)c1nc(C(F)(F)F)c2ccccn12.Cl` [Example 31] are 1.9 nM and > 2.17 h.
With `Cn1nc(C(C)(C)NC(=O)[C@H]2[C@@H]3CNC[C@@H]32)c2cccnc21` [Example 32], in data set [1], the EC50 was found to be 9.9 nM. The half-life at 1 μM in data set [2] is > 2.17 h.
For the compound `Cc1cc(C(C)(C)NC(=O)[C@H]2[C@@H]3CNC[C@@H]32)c2ccccc2n1` [Example 33], in data set [1], the EC50 was found to be 4.6 nM. Moreover, in data set [2], the half-life at 1 μM is > 2.17 h.
The corresponding values for `Cc1ccncc1OCC(C)(C)NC(=O)[C@H]1[C@@H]2CNC[C@@H]21` [Example 38] are 27.8 nM and > 2.17 h.
`CCc1ccccc1OCC(C)(C)NC(=O)[C@H]1[C@@H]2CNC[C@@H]21.Cl` [Example 39]: the EC50 in data set [1] turned out to be 3 nM. Besides, the half-life at 1 μM in data set [2] was > 2.17 h.
In the case of `CC(C)(COc1ccccc1Cl)NC(=O)[C@H]1[C@@H]2CNC[C@@H]21.Cl` [Example 42], the EC50 in data set [1] came out at 14.7 nM. For the same compound, the half-life at 1 μM in data set [2] was > 2.17 h.
For `Cc1cccc(OCC(C)(C)NC(=O)[C@H]2[C@@H]3CNC[C@@H]32)c1` [Example 43], the EC50 in data set [1] came to 185 nM. Moreover, in data set [2], the half-life at 1 μM was > 2.17 h.
For the compound `Cc1ncccc1OCC(C)(C)NC(=O)[C@H]1[C@@H]2CNC[C@@H]21.Cl` [Example 44], the EC50 in data set [1] was 361 nM. Also, the half-life at 1 μM in data set [2] is > 2.17 h.
In the case of `Cn1nc(C(C)(C)NC(=O)[C@H]2[C@@H]3CNC[C@@H]32)c2cccc(Cl)c21` [Example 106], the half-life at 1 μM in data set [2] is > 2.17 h.
Regarding `Cc1cccc2c(C(C)(C)NC(=O)[C@H]3[C@@H]4CNC[C@@H]43)n(C)nc12` [Example 108], the half-life at 1 μM in data set [2] is > 2.17 h.
In the case of `CC(C)(NC(=O)[C@H]1[C@@H]2CNC[C@@H]21)c1n[nH]c2c(C(F)(F)F)cccc12` [Example 110], the “Half-life t1/2” value in data set [2] (37° C.) was >2.17 h.
On to `CC(C)(NC(=O)[C@H]1[C@@H]2CNC[C@@H]21)c1ncc2c(OC(F)(F)F)cccn12` [Example 152], for which the EC50 in data set [1] turned out to be 26.1 nM.
For the compound `CC(C)(NC(=O)[C@H]1[C@@H]2CNC[C@@H]21)c1ncnc2c(F)cccc12` [Example 154], the 50% effective concentration (EC50) in data set [1] came to 7.6 nM.
In the case of `COc1ccn2c(C(C)(C)NC(=O)[C@H]3[C@@H]4CNC[C@@H]43)nc(C)c2c1` [Example 155], the EC50 in data set [1] is 94.7 nM.
Regarding `Cc1nc(C(C)(C)NC(=O)[C@H]2[C@@H]3CNC[C@@H]32)c2cccc(F)c2n1` [Example 157], the EC50 in data set [1] was found to be 36.9 nM.
On the same count and under the same terms, then `Cc1cccn2c([C@@H](C)NC(=O)[C@H]3[C@@H]4CNC[C@@H]43)ncc12` [Example 160], with 42.4 nM.
For the compound `Cc1nc(C(C)NC(=O)[C@H]2[C@@H]3CNC[C@@H]32)c2ccccc2n1` (stereo partly shown) [Example 161], in data set [1], the EC50 was 764 nM.
As for `Cc1nc(C(C)NC(=O)[C@H]2[C@@H]3CNC[C@@H]32)c2cccc(C)c2n1` (stereo partly shown) [Example 162], the EC50 in data set [1] came to 128 nM.
In the case of `O=C(NC1(c2nc3ccc(Cl)cc3[nH]2)CCOC1)[C@H]1[C@@H]2CNC[C@@H]21` (stereo partly shown) [Example 169], in data set [1], the EC50 came to 313 nM.
Regarding `Cc1ccc(C(C)(C)NC(=O)[C@H]2[C@@H]3CNC[C@@H]32)c(C)n1` [Example 172], the EC50 in data set [1] was determined as 520 nM.
For `CC(C)(NC(=O)[C@H]1[C@@H]2CNC[C@@H]21)C1COc2ccccc21` (stereo partly shown) [Example 173], the EC50 in data set [1] was found to be 237 nM.
`Cn1nc(C(C)(C)NC(=O)[C@H]2[C@@H]3CNC[C@@H]32)c2c1CCCC2` [Example 176]: the EC50 in data set [1] was determined as 1.2 nM.
As to `Cc1cc(C)c(C(C)(C)NC(=O)[C@H]2[C@@H]3CNC[C@@H]32)cn1` [Example 177], the EC50 in data set [1] stood at 9.1 nM.
For the compound `CC(C)(NC(=O)[C@H]1[C@@H]2CNC[C@@H]21)C1CCOc2ccccc21` (stereo partly shown) [Example 178], the EC50 in data set [1] came out at 22.4 nM.
`CC(C)(NC(=O)[C@H]1[C@@H]2CNC[C@@H]21)c1ncc2n1CCCC2` [Example 181]: the EC50 in data set [1] worked out at 41.3 nM.
As for `Cc1cccn2c(C3(NC(=O)[C@H]4[C@@H]5CNC[C@@H]54)CCOCC3)ncc12` [Example 182], in data set [1], the EC50 was 68.5 nM.
The same measure, in the same setting: with `Cc1cccn2c(C(C)(NC(=O)[C@H]3[C@@H]4CNC[C@@H]43)C3CC3)ncc12` (stereo partly shown) [Example 183] the figure was 9.9 nM; with `Cc1cccn2c(C(C)(C)NC(=O)[C@H]3[C@@H]4CNC[C@@H]43)ccc12` [Example 184], 0.4 nM.
